In patent US6630161B1, “Adjuvant composition and methods for its use” (Ribi Immunochem Research, Inc., priority 1998, dated 2003):

Test: Histamine type response after intravenous administration of surfactants
Format: in vivo
Conditions: dogs

| Molecule | response when administered intravenously |
| --- | --- |
| polysorbate 80 | histamine type response |
| CCCCCCCC/C=C\CCCCCCCC(=O)OCCOCC(OCCO)C1OCC(OCCO)C1OCCO (centres unmarked) [Tween 80] | histamine type response |
